In patent US10016383B2, “Inhibitors of metallo-β-lactamase-enzymes” (McMaster University, priority 2013, dated 2018):

Key:
K. pneumoniae N11-2218 = assay: Mouse lethal systemic infection, survival; type: in vivo, CD1 mice
From the text: All animals were housed in specific pathogen-free units in the Central Animal Facility at McMaster University. All experimental protocols were approved by, and performed in accordance with the McMaster Animal Research Ethics Board. Female CD1 mice were purchased from Charles River.
Mice were infected intraperitoneally (ip) with a dose of 2×10^6 colony forming units (cfu) of Klebsiella pneumoniae N11-2218 for all organ bacterial load experiments, or with a dose of 5×10^7cfu for all survival experiments. For all organ bacterial load experiments, mice were euthanized 48 hours post infection, and spleen and liver were harvested. Organs were placed into 1 mL sterile PBS on ice, and then homogenized (Mixer Mill 400; Retsch). Organ homogenates were then serially diluted in PBS, and plated on Brilliant Green agar (Oxoid) for cfu enumeration. For survival curves, mice were monitored for endpoint. For all experiments, mice were treated 30 minutes post infection with a specified subcutaneous dose of either PBS, meropenem, AM-A inhibitor, or a combination of both antibiotic and inhibitor.

NDM-1 [1] = target: T1, NDM-1 (Klebsiella pneumoniae, UniProt C7C422); assay: IC50 enzyme inhibition assay, nitrocefin reporter substrate; type: biochemical; set-up: All β-lactamase overexpression constructs were generated without the leader peptide in a pET-28b plasmid containing a N-terminal His Tag; His tag (N, cleaved yes); SUMO (implied by the use of SUMO protease) (N, cleaved yes); made in house; host or cells: E. coli BL21(DE3)
Method: Enzyme (NDM-1, 5 nM; VIM-2, 500 pM; CTX-M-15, 500 pM; KPC-2, 5 nM; OXA-48, 1 nM; TEM-1, 100 pM; ACE, 50 nM) was mixed with 30 μM nitrocefin (100 μM nitrocefin for TEM-1; 250 µM furanacryloyl-L-phenylalanylglycylglycine [FAPGG] for ACE^24) after a 5-10 minute preincubation with AM-A. Metallo-enzymes were supplemented with 10 μM ZnSO4. Assays were read in 96-well microplate format at 490 nm using a Spectramax reader (Molecular Devices) at 30-37° C.
E. coli strain BW25113 was modified by deletion of the bamB and tolC genes so as to increase permeability to and reduce efflux of small molecules. This strain was then further modified by the single-copy chromosomal insertion of the blaNDM-1 gene under control of the pLac promoter. Microbial natural product extracts were screened against this strain in the presence of sublethal ¼ MIC meropenem. AM-A was purified from a hit extract and its structure elucidated by NMR, mass spectrometry and polarimetry. IC50 values for AM-A were determined using nitrocefin (for MBLs and Ser BLs) and furanacryloyl-L-phenylalanylglycylglycine (for ACE)^21 as reporter substrates against the following purified enzymes: MBLs IMP-7, VIM-2, and NDM-1; SBLs CTX-M-15, KPC-2, OXA-48, and TEM-1; as well as ACE from rabbit lung. […] FIC values were determined using standard methods^27. […]
Target sequence in this assay (C7C422 29-270 limits assumed): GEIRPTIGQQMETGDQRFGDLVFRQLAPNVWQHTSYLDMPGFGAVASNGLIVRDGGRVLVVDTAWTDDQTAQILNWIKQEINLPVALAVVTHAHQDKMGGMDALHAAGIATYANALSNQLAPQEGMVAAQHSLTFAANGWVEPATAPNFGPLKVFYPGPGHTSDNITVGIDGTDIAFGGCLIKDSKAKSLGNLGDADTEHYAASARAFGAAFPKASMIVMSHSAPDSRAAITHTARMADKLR

IMP-7 = assay: Incubation of AM-A with metalloenzymes in Zn2+-depleted buffer; type: biochemical; conditions: extended incubation, AM-A 0.5 mM
Method: 20 μL of the above was diluted with 180 μL nitrocefin or FAPGG substrate for the following final concentrations: Enzyme (50 nM), FAPGG (50 μM)/nitrocefin (20 μM), AM-A (50 μM). Buffer (50 mM HEPES pH 7.5, 300 mM NaCl) was stirred overnight with 2 g/100 mL Chelex-100 (Biorad; Richmond, Calif.). Assays were read in 96-well microplate format at 490 nm using a Spectramax reader (Molecular Devices) at 37° C.

NDM-1 [2] = target: T1, NDM-1; assay: ICP mass spectrometry of Zn in enzyme; conditions: NDM-1 inactivated by AM-A, ICP-MS
Method: Inductively coupled mass spectrometry (ICP-MS) was used to analyze the ability of AM-A to chelate Zn^66 from purified NDM-1 (27-270). The NDM-1 protein was purified as previously described^26 and freshly exchanged using a 15 kDa cutoff dialysis tubing into ICP-MS buffer (20 mM HEPES, 100 mM NaCl, pH 7.5) overnight at 4° C. in order to remove any contaminating metals. The protein was concentrated to ˜5 mg/mL and varying concentrations of AM-A were incubated with the protein samples in triplicate for 3 hours at room temperature with gentle shaking. The protein-AM-A samples were again dialyzed overnight at 4° C. into ICP-MS buffer using 12-14 kDa cutoff D-tube dialyzer mini (EMD biosciences) microdialysis cassettes. The final protein was diluted to 1 mg/mL in ICP-MS buffer, followed by a 1/40 dilution in an internal standard (10 ug/L Sc45, 1% nitric acid, Inorganic Ventures). Prior to sample analysis, the ICP MS was calibrated using a standard solution containing the metal isotopes of interest (Inorganic Ventures). […] Quantitative analysis was performed in triplicate for each sample with 60 sweeps per reading using the peak-hopping mode with a 50 ms/AMU dwell time for each element. […] Isotope abundance was determined by integrating peak areas using the NexION software program, and the data was represented graphically using Microsoft Excel.
Target sequence in this assay (C7C422 27-270 limits assumed): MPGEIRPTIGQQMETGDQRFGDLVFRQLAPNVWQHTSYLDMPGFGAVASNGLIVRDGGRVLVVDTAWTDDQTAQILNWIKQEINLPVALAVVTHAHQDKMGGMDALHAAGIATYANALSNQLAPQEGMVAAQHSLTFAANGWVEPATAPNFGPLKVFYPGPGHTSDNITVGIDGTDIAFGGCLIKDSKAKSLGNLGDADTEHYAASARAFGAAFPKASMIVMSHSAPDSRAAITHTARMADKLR

In the case of `N[C@H](CN[C@H](CN[C@@H](CC(=O)O)C(=O)O)C(=O)O)C(=O)O` [AM-A, aspergillomarasmine A], the “prevention of lethal infection” value (K. pneumoniae N11-2218; monotherapy (alone)) is reported as “unable to prevent lethal infection”, the survival (K. pneumoniae N11-2218; single dose of combination meropenem 10 mg/kg + AM-A 30 mg/kg, 5 days following infection) is reported as greater than 95% and the “in vitro inhibition of NDM-1” value (NDM-1 [1]) is reported as “potent in vitro dose-dependent inhibition”. The “inhibition of activity in IMP-7” value (IMP-7) was roughly 70% and the “loss of Zn from NDM-1” value (NDM-1 [2]) was roughly 1.8 Zn equivalents.
